Source: PubChem BioAssay AID1963433 (Molecular Pharmacology Branch, DTP, NCI, 2024)

System: 772245-204-R-J1-PDC complex spheroid growth
Assay: Anticancer human tumor 772245-204-R-J1-PDC patient-derived rhabdomyosarcoma cell line growth inhibition [Asc]
Conditions: for IC50: curve of first compound; for viability, T/C: stronger effect = lower value
Outline: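 Tumor cells were grown as complex spheroids with human endothelial cells (HUVEC) and human mesenchymal stem cells as stroma. Agents were tested alone and in combination, in half-log steps down from the clinical Cmax, or from 10 microM where Cmax was unknown.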

[1] = second compound 0.01 µM, first compound 0.00316 µM
[2] = second compound 0.01 µM, first compound 0.01 µM
[3] = second compound 0.01 µM, first compound 0.0316 µM
[4] = second compound 0.01 µM, first compound 0.1 µM
[5] = second compound 0.01 µM, first compound 0.316 µM
[6] = second compound 0.01 µM, first compound 1 µM
[7] = second compound 0.0316 µM, first compound 0.00316 µM
[8] = second compound 0.0316 µM, first compound 0.01 µM
[9] = second compound 0.0316 µM, first compound 0.0316 µM
[10] = second compound 0.0316 µM, first compound 0.1 µM
[11] = second compound 0.0316 µM, first compound 0.316 µM
[12] = second compound 0.0316 µM, first compound 1 µM
[13] = second compound 0.1 µM, first compound 0.00316 µM
[14] = second compound 0.1 µM, first compound 0.01 µM
[15] = second compound 0.1 µM, first compound 0.0316 µM
[16] = second compound 0.1 µM, first compound 0.1 µM
[17] = second compound 0.1 µM, first compound 0.316 µM
[18] = second compound 0.1 µM, first compound 1 µM
[19] = second compound 0.316 µM, first compound 0.00316 µM
[20] = second compound 0.316 µM, first compound 0.01 µM
[21] = second compound 0.316 µM, first compound 0.0316 µM
[22] = second compound 0.316 µM, first compound 0.1 µM
[23] = second compound 0.316 µM, first compound 0.316 µM
[24] = second compound 0.316 µM, first compound 1 µM
[25] = second compound 1 µM, first compound 0.00316 µM
[26] = second compound 1 µM, first compound 0.01 µM
[27] = second compound 1 µM, first compound 0.0316 µM
[28] = second compound 1 µM, first compound 0.1 µM
[29] = second compound 1 µM, first compound 0.316 µM
[30] = second compound 1 µM, first compound 1 µM
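Also: compound exposure lasted seven days.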
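For viability, T/C in this document: 100% = DMSO vehicle control viability.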

Compound	IC50 (second compound 0.01 µM) [nM]	IC50 (second compound 0.0316 µM) [nM]	IC50 (second compound 0.1 µM) [nM]	IC50 (second compound 0.316 µM) [nM]	IC50 (second compound 1 µM) [nM]	viability, T/C [1] [%]	viability, T/C [2] [%]	viability, T/C [3] [%]	viability, T/C [4] [%]	viability, T/C [5] [%]	viability, T/C [6] [%]	viability, T/C [7] [%]	viability, T/C [8] [%]	viability, T/C [9] [%]	viability, T/C [10] [%]	viability, T/C [11] [%]	viability, T/C [12] [%]	viability, T/C [13] [%]	viability, T/C [14] [%]	viability, T/C [15] [%]	other results
CCN1CCN(Cc2ccc(Nc3ncc(F)c(-c4cc(F)c5nc(C)n(C(C)C)c5c4)n3)nc2)CC1 + CNC(C)C(=O)NC1CN(S(=O)(=O)c2cccc(S(=O)(=O)N3CCC4CCC(C(=O)NC(c5ccccc5)c5ccccc5)N4C(=O)C(NC(=O)C(C)NC)C3)c2)CCC2CCC(C(=O)NC(c3ccccc3)c3ccccc3)N2C1=O	> 1000	> 1000	> 1000	> 1000	> 1000	104	94.3	90.8	99.8	106	108	85.3	95.3	96	94	102	103	82.3	89.9	85.8	viability, T/C [16]: 104%; viability, T/C [17]: 104%; viability, T/C [18]: 115%; viability, T/C [19]: 103%; viability, T/C [20]: 94.1%; viability, T/C [21]: 96.1%; viability, T/C [22]: 89.4%; viability, T/C [23]: 92.8%; viability, T/C [24]: 104%; viability, T/C [25]: 87.8%; viability, T/C [26]: 94.3%; viability, T/C [27]: 102%; viability, T/C [28]: 98.8%; viability, T/C [29]: 105%; viability, T/C [30]: 104%
O=C(c1ccc(F)c(F)c1Nc1ccc(I)cc1F)N1CC(O)([C@@H]2CCCCN2)C1 + CNC(C)C(=O)NC1CN(S(=O)(=O)c2cccc(S(=O)(=O)N3CCC4CCC(C(=O)NC(c5ccccc5)c5ccccc5)N4C(=O)C(NC(=O)C(C)NC)C3)c2)CCC2CCC(C(=O)NC(c3ccccc3)c3ccccc3)N2C1=O	> 1000	> 1000	> 1000	> 1000	> 1000	93.1	85.4	93.3	84.8	97.9	105	98.3	90.7	95.2	93.2	101	95.4	93.3	84.8	90.1	viability, T/C [16]: 87.6%; viability, T/C [17]: 103%; viability, T/C [18]: 77.9%; viability, T/C [19]: 91.7%; viability, T/C [20]: 88.1%; viability, T/C [21]: 96.8%; viability, T/C [22]: 99.8%; viability, T/C [23]: 103%; viability, T/C [24]: 112%; viability, T/C [25]: 100%; viability, T/C [26]: 89.7%; viability, T/C [27]: 88.8%; viability, T/C [28]: 92%; viability, T/C [29]: 94.5%; viability, T/C [30]: 97.6%
